Patent US9296725B2, “Heterocyclyl pyrimidine analogues as TYK2 inhibitors” (Cellzome Limited, priority 2012, dated 2016)

Key:
JAK2 = biological target: T1, JAK2 (Homo sapiens, UniProt O60674); experiment: Kinobeads assay, JAK2 (competition binding in mixed Molt4/Ramos cell lysate, dot blot detection); conditions: read-out: JAK2 Band (Kinobeads assay potency, IC50)
T1 construct: endogenous in cells; host or cells: Molt4 (ATCC CRL-1582) and Ramos (ATCC CRL-1596), mixed lysate 1:2
Procedure: (§1) The compounds of the present invention as described in the previous examples were tested in a Kinobeads™ assay as described for ZAP-70 (WO-A 2007/137867). Briefly, test compounds (at various concentrations) and the affinity matrix with the immobilized aminopyrido-pyrimidine ligand 24 were added to cell lysate aliquots and allowed to bind to the proteins in 10 the lysate sample. After the incubation time the beads with captured proteins were separated from the lysate. Bound proteins were then eluted and the presence of TYK2 and JAK2 was detected and quantified using specific antibodies in a dot blot procedure and the Odyssey infrared detection system. Dose response curves for individual kinases were generated and IC50 values calculated. Kinobeads™ assays have been previously described (WO-A 2007/137867; WO-A 2006/134056).
(§2) The affinity matrix was washed two times with 15 mL of 1×DP buffer containing 0.2% NP40 (IGEPAL® CA-630, Sigma, #13021) and then resuspended in 1×DP buffer containing 0.2% NP40 (3% beads slurry). 5×DP buffer: 250 mM Tris-HCl pH 7.4, 25% Glycerol, 7.5 mM MgCl2, 750 mM NaCl, 5 mM Na3VO4; filter the 5×DP buffer through a 0.22 μm filter and store in aliquots at −80° C. The 5×DP buffer is diluted with H2O to 1×DP buffer containing 1 mM DTT and 25 mM NaF.
(§3) Stock solutions of test compounds were prepared in DMSO. In a 96 well plate 30 μL solution of diluted test compounds at 5 mM in DMSO were prepared. Starting with this solution a 1:3 dilution series (9 steps) was prepared. For control experiments (no test compound) a buffer containing 2% DMSO was used.
(§4) Molt4 cells (ATCC catalogue number CRL-1582) and Ramos cells (ATCC catalogue number CRL-1596) were grown in 1 L Spinner flasks (Integra Biosciences, #182101) in suspension in RPMI 1640 medium (Invitrogen, #21875-034) supplemented with 10% Fetal Bovine Serum (Invitrogen) at a density between 0.15×10^6 and 1.2×10^6 cells/mL. Cells were harvested by centrifugation, washed once with 1×PBS buffer (Invitrogen, #14190-094) and cell pellets were frozen in liquid nitrogen and subsequently stored at −80° C. Cells were homogenized in a Potter S homogenizer in lysis buffer: 50 mM Tris-HCl, 0.8% NP40, 5% glycerol, 150 mM NaCl, 1.5 mM MgCl2, 25 mM NaF, 1 mM sodium vanadate, 1 mM DTT, pH 7.5. One complete EDTA-free tablet (protease inhibitor cocktail, Roche Diagnostics, 1873580) per 25 mL buffer was added. The material was dounced 10 times using a mechanized POTTER S, transferred to 50 mL falcon tubes, incubated for 30 minutes on ice and spun down for 10 minutes at 20,000 g at 4° C. (10,000 rpm in Sorvall SLA600, precooled). The supernatant was transferred to an ultracentrifuge (UZ)-polycarbonate tube (Beckmann, 355654) and spun for 1 hour at 100.000 g at 4° C. (33.500 rpm in Ti50.2, precooled). The supernatant was transferred again to a fresh 50 mL falcon tube, the protein concentration was determined by a Bradford assay (BioRad) and samples containing 50 mg of protein per aliquot were prepared. The samples were immediately used for experiments or frozen in liquid nitrogen and stored frozen at −80° C.
(§5) Cell lysate (approximately 50 mg protein per plate) was thawed in a water bath at room temperature and then stored on ice. To the thawed cell lysate 1×DP 0.8% NP40 buffer containing protease inhibitors (1 tablet for 25 mL buffer; EDTA-free protease inhibitor cocktail; Roche Diagnostics 1873580) was added in order to reach a final protein concentration of 10 mg/mL total protein. The diluted cell lysate was stored on ice. Mixed Molt4/Ramos lysate was prepared by combining one volume of Molt4 lysate and two volumes of Ramos lysate (ratio 1:2).
(§6) To a 96 well filter plate (Multiscreen HTS, BV Filter Plates, Millipore #MSBVN1250) were added per well: 100 μL affinity matrix (3% beads slurry), 3 μL of compound solution, and 50 μL of diluted lysate. Plates were sealed and incubated for 3 hours in a cold room on a plate shaker (Heidolph tiramax 1000) at 750 rpm. […]

TYK2 = biological target: T2, TYK2 (Homo sapiens, UniProt P29597); experiment: Kinobeads assay, TYK2 (competition binding in mixed Molt4/Ramos cell lysate, dot blot detection); conditions: Kinobeads assay, Molt4/Ramos lysate; read-out: TYK2 Band (Kinobeads assay potency, IC50)
T2 construct: endogenous in cells; host or cells: Molt4 (ATCC CRL-1582) and Ramos (ATCC CRL-1596), mixed lysate 1:2
Procedure: as §1, §2, §3, §4, §5, §6

T1 sequence (O60674 whole entry): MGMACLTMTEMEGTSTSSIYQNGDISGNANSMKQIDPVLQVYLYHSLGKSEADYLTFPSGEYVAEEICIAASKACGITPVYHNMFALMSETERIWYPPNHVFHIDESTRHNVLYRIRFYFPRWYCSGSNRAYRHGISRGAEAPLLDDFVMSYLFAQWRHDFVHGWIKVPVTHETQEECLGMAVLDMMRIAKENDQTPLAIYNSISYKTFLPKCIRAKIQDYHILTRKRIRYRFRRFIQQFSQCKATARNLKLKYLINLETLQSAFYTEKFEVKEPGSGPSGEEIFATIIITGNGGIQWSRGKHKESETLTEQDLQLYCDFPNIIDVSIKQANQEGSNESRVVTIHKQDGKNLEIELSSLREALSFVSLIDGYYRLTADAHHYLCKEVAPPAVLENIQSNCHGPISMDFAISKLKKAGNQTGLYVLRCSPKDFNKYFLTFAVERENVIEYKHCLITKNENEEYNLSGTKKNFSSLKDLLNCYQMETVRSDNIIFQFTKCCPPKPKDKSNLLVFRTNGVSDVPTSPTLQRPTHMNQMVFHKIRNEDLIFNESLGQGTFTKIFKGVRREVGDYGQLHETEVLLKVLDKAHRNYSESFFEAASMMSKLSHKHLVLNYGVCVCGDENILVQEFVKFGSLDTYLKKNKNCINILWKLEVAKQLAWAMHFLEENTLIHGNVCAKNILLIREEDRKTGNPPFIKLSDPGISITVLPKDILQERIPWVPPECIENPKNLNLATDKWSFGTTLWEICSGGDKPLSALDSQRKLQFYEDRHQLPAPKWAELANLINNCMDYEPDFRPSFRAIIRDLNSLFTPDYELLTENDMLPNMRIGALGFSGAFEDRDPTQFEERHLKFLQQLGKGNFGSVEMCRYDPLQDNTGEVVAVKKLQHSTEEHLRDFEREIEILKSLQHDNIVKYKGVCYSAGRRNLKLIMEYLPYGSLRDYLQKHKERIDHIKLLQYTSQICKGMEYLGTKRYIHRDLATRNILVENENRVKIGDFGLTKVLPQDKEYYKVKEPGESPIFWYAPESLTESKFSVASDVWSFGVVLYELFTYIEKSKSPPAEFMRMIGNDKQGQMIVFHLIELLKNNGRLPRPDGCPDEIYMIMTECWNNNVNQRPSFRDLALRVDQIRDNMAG
T2 sequence (P29597 whole entry): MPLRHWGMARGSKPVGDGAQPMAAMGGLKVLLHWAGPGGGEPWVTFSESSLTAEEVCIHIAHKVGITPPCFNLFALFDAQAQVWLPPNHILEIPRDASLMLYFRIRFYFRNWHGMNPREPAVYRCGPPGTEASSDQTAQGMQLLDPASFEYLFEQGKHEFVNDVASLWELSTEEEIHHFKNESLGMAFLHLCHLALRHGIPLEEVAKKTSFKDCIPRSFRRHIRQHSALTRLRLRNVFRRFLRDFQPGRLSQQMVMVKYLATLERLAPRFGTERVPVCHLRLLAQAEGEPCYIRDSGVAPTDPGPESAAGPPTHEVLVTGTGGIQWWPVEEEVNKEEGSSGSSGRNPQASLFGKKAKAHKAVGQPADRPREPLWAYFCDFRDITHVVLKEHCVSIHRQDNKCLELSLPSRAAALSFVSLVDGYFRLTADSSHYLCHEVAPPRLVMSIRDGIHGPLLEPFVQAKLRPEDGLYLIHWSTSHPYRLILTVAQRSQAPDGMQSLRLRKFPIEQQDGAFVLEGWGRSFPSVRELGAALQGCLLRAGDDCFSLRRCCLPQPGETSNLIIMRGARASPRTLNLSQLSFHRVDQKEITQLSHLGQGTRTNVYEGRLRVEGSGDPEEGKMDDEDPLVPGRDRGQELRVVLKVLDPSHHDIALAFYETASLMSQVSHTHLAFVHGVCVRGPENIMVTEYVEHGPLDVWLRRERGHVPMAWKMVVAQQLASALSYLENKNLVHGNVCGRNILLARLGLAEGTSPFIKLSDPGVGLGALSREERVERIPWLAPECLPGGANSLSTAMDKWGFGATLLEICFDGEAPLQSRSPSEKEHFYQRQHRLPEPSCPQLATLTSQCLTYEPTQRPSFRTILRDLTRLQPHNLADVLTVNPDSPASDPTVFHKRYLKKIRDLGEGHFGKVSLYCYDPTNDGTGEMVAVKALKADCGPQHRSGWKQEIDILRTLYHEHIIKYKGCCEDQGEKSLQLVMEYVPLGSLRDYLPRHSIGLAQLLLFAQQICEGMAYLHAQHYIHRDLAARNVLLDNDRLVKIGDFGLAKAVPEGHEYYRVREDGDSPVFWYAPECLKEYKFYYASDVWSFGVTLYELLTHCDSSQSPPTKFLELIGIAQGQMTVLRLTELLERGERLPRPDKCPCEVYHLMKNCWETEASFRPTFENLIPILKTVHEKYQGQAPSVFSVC

| Structure (SMILES) | IC50 (JAK2) [nM] | IC50 (TYK2) [nM] |
| --- | --- | --- |
| NC(=O)Cn1cc(Nc2ncc(Cl)c(NCc3cccnc3O)n2)cn1 [Example I-405] | 1000 to 10000 | 1000 to 10000 |
| Cn1cc(Nc2ncc(Cl)c(NCc3c(F)cccc3F)n2)cn1 [Example I-175] | 1000 to 10000 | 10 to 100 |
| Fc1cccc(F)c1CNc1nc(Nc2cnn(Cc3ncco3)c2)ncc1Cl [Example I-481] | 1000 to 10000 | 100 to 1000 |
| Cn1cc(Nc2ncc(F)c(NCc3c(Cl)ccc(Cl)c3F)n2)cn1 [Example I-457] | 100 to 1000 | 10 to 100 |
| O=C(Cn1cc(Nc2nccc(NCc3c(F)cc(F)cc3F)n2)cn1)NCC(F)F [Example I-92] | 1000 to 10000 | 10 to 100 |
| Cc1cnc(Nc2cnn(CC(=O)NC3CC3)c2)nc1NCc1cc(F)cc(F)c1F [Example I-101] | 100 to 1000 | 10 to 100 |
| COC[C@H](C)NC(=O)Cn1cc(Nc2ncc(F)c(NCc3c(F)cc(F)cc3F)n2)cn1 [Example I-71] | > 10000 | 10 to 100 |
| Cn1cc(Nc2ncc(Cl)c(NCc3cccnc3F)n2)cn1 [Example I-406] | 100 to 1000 | 100 to 1000 |
| Cc1cnc(Nc2cnn(CCO)c2)nc1NCc1ccccc1S(C)(=O)=O [Example I-433] | 1000 to 10000 | 100 to 1000 |
| Cn1cc(Nc2ncc(Cl)c(NCc3cc(S(C)(=O)=O)ccc3F)n2)cn1 [Example I-99] | 100 to 1000 | 10 to 100 |
| CCOc1ccc(F)c(CNc2nc(Nc3cnn(CC(N)=O)c3)ncc2Cl)c1F [Example I-267] | 100 to 1000 | 10 to 100 |
| NC(=O)Cn1cc(Nc2nccc(NCc3c(F)cc(F)cc3F)n2)cn1 [Example I-311] | 1000 to 10000 | 10 to 100 |
| Cn1cc(Nc2ncc(Cl)c(NCc3ncccc3F)n2)cn1 [Example I-260] | 1000 to 10000 | 100 to 1000 |
| FCCn1cc(Nc2ncc(Cl)c(NCc3ccccc3)n2)cn1 [Example I-461] | 1000 to 10000 | 1000 to 10000 |
| CN(C)C(=O)Cn1cc(Nc2ncc(Cl)c(NCc3c(Cl)cccc3Cl)n2)cn1 [Example I-326] | 100 to 1000 | 10 to 100 |
| COc1cc(F)c(CNc2nc(Nc3cnn(CC(=O)N4CCOCC4)c3)ncc2C)c(F)c1 [Example I-29] | 1000 to 10000 | ≤ 10 |
| CN(C)C(=O)Cn1cc(Nc2ncc(Cl)c(NCc3c(F)cc(F)cc3F)n2)cn1 [Example I-16] | 1000 to 10000 | 10 to 100 |
| CN(Cc1cccc(CNc2nc(Nc3cnn(CC(=O)N4CCOCC4)c3)ncc2Cl)c1)S(C)(=O)=O [Example I-401] | 1000 to 10000 | 100 to 1000 |
| CS(=O)(=O)NCc1cccc(CNc2nc(Nc3cnn(CC(=O)N4CCOCC4)c3)ncc2Cl)c1 [Example I-396] | 1000 to 10000 | 10 to 100 |
| O=C(Cn1cc(Nc2ncc(Cl)c(NCc3ccccc3)n2)cn1)N1CC2COCC2C1 (stereo not drawn) [Example I-188] | 1000 to 10000 | 10 to 100 |
| COc1ccc(Cl)c(CNc2nc(Nc3cnn(C)c3)ncc2F)c1F [Example I-85] | 100 to 1000 | 10 to 100 |

| Structure (SMILES) | IC50 (JAK2) [nM] | IC50 (TYK2) [nM] |
| --- | --- | --- |
| CNC(=O)Cn1cc(Nc2ncc(Cl)c(NCc3cccc(OCC#N)c3)n2)cn1 [Example I-364] | 1000 to 10000 | 100 to 1000 |
| CC(O)Cn1cc(Nc2ncc(Cl)c(NCc3cccc(F)c3)n2)cn1 (stereo not drawn) [Example I-214] | 1000 to 10000 | 100 to 1000 |
| C[C@@H](CO)NC(=O)Cn1cc(Nc2ncc(F)c(NCc3c(F)cc(F)cc3F)n2)cn1 [Example I-42] | 1000 to 10000 | ≤ 10 |
| Cc1cnc(Nc2cnn(CC(=O)N3CCOCC3)c2)nc1NCc1cc(F)cc(F)c1 [Example I-348] | 10 to 100 | 10 to 100 |
| COc1ccccc1CNc1nc(Nc2cnn(CCO)c2)ncc1Cl [Example I-185] | 1000 to 10000 | 100 to 1000 |
| CS(=O)(=O)c1ccc(F)c(CNc2nc(Nc3cn[nH]c3)ncc2F)c1 [Example I-114] | 1000 to 10000 | 10 to 100 |
| CS(=O)(=O)c1ccccc1CNc1nc(Nc2cnn(CCO)c2)ncc1Cl [Example I-266] | 1000 to 10000 | 100 to 1000 |
| Cc1cnc(Nc2cnn(CCO)c2)nc1NCc1ccccc1 [Example I-169] | 1000 to 10000 | 100 to 1000 |
| Cc1cnc(Nc2cnn(CCC(F)(F)F)c2)nc1NCc1cc(F)cc(F)c1 [Example I-463] | 1000 to 10000 | 1000 to 10000 |
| C[C@H](CO)NC(=O)Cn1cc(Nc2nccc(NCc3c(F)ccc(C#N)c3F)n2)cn1 [Example I-154] | 1000 to 10000 | ≤ 10 |
| Cc1cnc(Nc2cnn(CC(=O)N(C)C)c2)nc1NCc1ccccc1 [Example I-300] | 1000 to 10000 | 100 to 1000 |
| CN(C)C(=O)Cn1cc(Nc2ncc(Cl)c(NCc3c(F)ccc(F)c3F)n2)cn1 [Example I-360] | 100 to 1000 | ≤ 10 |
| Cc1cnc(Nc2cnn(C)c2)nc1NCc1cccc(CNS(C)(=O)=O)c1 [Example I-402] | 1000 to 10000 | 100 to 1000 |
| OCCn1cc(Nc2ncc(Cl)c(NCc3cccc(C(F)F)c3)n2)cn1 [Example I-293] | 100 to 1000 | 100 to 1000 |
| Cn1cc(Nc2ncc(Cl)c(NCc3cncc(F)c3)n2)cn1 [Example I-258] | 100 to 1000 | 100 to 1000 |
| CC(C)N(C)C(=O)Cn1cc(Nc2nccc(NCc3c(F)cc(F)cc3F)n2)cn1 [Example I-317] | > 10000 | 10 to 100 |
| COc1ccc(F)c(CNc2nc(Nc3cnn(CC(=O)N4CCOCC4)c3)ncc2F)c1F [Example I-24] | 1000 to 10000 | ≤ 10 |
| COc1cc(F)c(CNc2nc(Nc3cnn(CC(N)=O)c3)ncc2C)c(F)c1 [Example I-315] | 1000 to 10000 | 10 to 100 |
| COc1ccc(F)c(CNc2nc(Nc3cnn(CC(N)=O)c3)ncc2Cl)c1F [Example I-375] | 100 to 1000 | 10 to 100 |
| CC(C)(O)Cn1cc(Nc2ncc(Cl)c(NCc3cc(F)ccc3F)n2)cn1 [Example I-292] | 100 to 1000 | 100 to 1000 |
| CN(C)C(=O)Cn1cc(Nc2ncc(Cl)c(NCc3cc(Br)cc(F)c3F)n2)cn1 [Example I-263] | 100 to 1000 | 100 to 1000 |
